# Measured values: US12281149B2, “Modulators of G-protein coupled receptors” (priority 2021, dated 2025)
# pEC50: −log10 of the molar value. *1 amine or outer side, *2 acyl side, *3 side chain or, on linkers, in order; H or OH if unused. Where a SMILES comes first, the peptide text is derived from it. Side-chain parts run from the residue outwards. [ ]: non-standard residue; d: D form. The star is where a group is joined. Isobutyryl(2-(3-CN-5-F-Ph)) = CC(C)(C(=O)*)c1cc(F)cc(C#N)c1; C20 diacid = O=C(O)CCCCCCCCCCCCCCCCCCC(=O)*; αMePhe(2-F) = C[C@](N)(Cc1ccccc1F)C(=O)O; γGlu = O=C(O)[C@H](CCC(=O)[*:2])N[*:1]; X9 = CC(C)(C(=O)*)c1cc(F)cc(C(=O)O)c1; X27 = O=C1CC(C(=O)*)(c2ccccc2)CN1; αMeL = CC(C)C[C@](C)(N)C(=O)O; Orn = NCCC[C@H](N)C(=O)O; AEEA = NCCOCCOCC(=O)O; Aib = CC(C)(N)C(=O)O; βAla = NCCC(=O)O
# Columns and labels:
# Assay type in all cases: cell-based
# [1] = biological target: T1, GIP receptor (Homo sapiens, UniProt P48546); experiment: HitHunter cAMP assay, GIP receptor; settings: for Emax: CHO cells, cAMP, normalized to maximum signal from GIP (high) and DMSO (low), read-out: Emax GIP-1R
# T1 sequence (P48546 22-466): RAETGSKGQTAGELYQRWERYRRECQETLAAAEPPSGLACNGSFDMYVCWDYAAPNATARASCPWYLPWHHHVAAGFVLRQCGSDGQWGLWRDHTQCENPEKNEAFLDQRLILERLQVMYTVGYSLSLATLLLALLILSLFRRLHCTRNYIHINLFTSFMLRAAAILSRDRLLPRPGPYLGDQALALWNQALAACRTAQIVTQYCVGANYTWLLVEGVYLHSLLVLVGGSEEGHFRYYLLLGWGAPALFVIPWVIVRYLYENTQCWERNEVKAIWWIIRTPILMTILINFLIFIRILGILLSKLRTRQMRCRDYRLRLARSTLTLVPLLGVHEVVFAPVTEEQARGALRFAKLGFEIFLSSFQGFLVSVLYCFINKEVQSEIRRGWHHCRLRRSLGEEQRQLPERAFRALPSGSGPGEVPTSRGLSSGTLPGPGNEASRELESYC
# [2] = biological target: T2, GLP-1 receptor (Homo sapiens, UniProt P43220); experiment: PathHunter β-arrestin assay, GLP-1 receptor; parameters: host or cells: PathHunter CHO-K1 GLP1R β-Arrestin Cell Line
# [3] = biological target: T2, GLP-1 receptor; experiment: HitHunter cAMP assay, GLP-1 receptor; settings: for Emax: CHO cells, cAMP, normalized to maximum signal from GLP-1 (high) and DMSO (low), read-out: Emax GLP-1R
# [4] = biological target: T1, GIP receptor; experiment: PathHunter β-arrestin assay, GIP receptor; parameters: host or cells: PathHunter CHO-K1 GIPR β-Arrestin Cell Line
# [5] = CHO cells stably expressing GIP receptor, cAMP accumulation, 30 min, read-out: EC50 GIP-1R
# [6] = β-arrestin-2 recruitment, PathHunter CHO-K1 GLP1R β-Arrestin Cell Line, 90 min at 37° C., normalized to GLP-1, read-out: GLP-1R β Arrestin EC50
# [7] = CHO cells stably expressing human GLP-1 receptor, cAMP accumulation, 30 min, read-out: EC50 GLP-1R
# [8] = β-arrestin-2 recruitment, PathHunter CHO-K1 GIPR β-Arrestin Cell Line, 90 min at 37° C., normalized to GIP, read-out: GIPR β Arrestin EC50
# T2 sequence (P43220 24-463): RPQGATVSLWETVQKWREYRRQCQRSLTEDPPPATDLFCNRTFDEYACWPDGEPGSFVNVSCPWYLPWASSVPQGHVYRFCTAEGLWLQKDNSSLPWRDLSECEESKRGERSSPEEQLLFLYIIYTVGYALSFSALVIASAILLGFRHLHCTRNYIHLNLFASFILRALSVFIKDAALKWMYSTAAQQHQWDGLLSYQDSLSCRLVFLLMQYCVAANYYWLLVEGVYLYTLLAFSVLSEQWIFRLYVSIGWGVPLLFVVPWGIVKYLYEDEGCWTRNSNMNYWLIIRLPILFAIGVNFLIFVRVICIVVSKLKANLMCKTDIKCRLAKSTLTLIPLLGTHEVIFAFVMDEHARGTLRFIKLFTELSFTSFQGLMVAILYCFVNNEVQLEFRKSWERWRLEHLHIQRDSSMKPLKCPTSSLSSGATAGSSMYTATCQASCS
SMILES,"pEC50 [1, 5]",Emax [1] [%],"pEC50 [2, 6]","pEC50 [3, 7]",Emax [3] [%],"pEC50 [4, 8]",pEC50 [1],pEC50 [2],pEC50 [3],pEC50 [4]
CC[C@H](C)[C@H](NC(=O)[C@H](CO)NC(=O)[C@H](CCCCNC(=O)COCCOCCNC(=O)COCCOCCNC(=O)CC[C@H](NC(=O)CCCCCCCCCCCCCCCCCCC(=O)O)C(=O)O)NC(=O)[C@H](CC(=O)O)NC(=O)[C@H](CO)NC(=O)[C@@H](NC(=O)[C@](C)(Cc1ccccc1F)NC(=O)[C@@H](NC(=O)CNC(=O)[C@H](CCC(=O)O)NC(=O)CCNC(=O)C1(c2ccccc2)CNC(=O)C1)[C@@H](C)O)[C@@H](C)O)C(=O)N[C@@H](Cc1ccc(O)cc1)C(=O)N[C@@H](CC(C)C)C(=O)N[C@@H](CC(=O)O)C(=O)N[C@@H](CCCCN)C(=O)N[C@@H](CCC(N)=O)C(=O)N[C@@H](C)C(=O)N[C@@H](C)C(=O)NC(C)(C)C(=O)N[C@@H](CCC(=O)O)C(=O)N[C@@H](Cc1ccccc1)C(=O)N[C@H](C(=O)N[C@@H](CC(N)=O)C(=O)N[C@@H](Cc1c[nH]c2ccccc12)C(=O)N[C@@H](CC(C)C)C(=O)N[C@@H](CC(C)C)C(=O)N[C@@H](C)C(=O)NCC(=O)NCC(=O)N1CCC[C@H]1C(=O)N[C@@H](CO)C(=O)N[C@@H](CO)C(=O)NCC(=O)N[C@@H](C)C(=O)N1CCC[C@H]1C(=O)N1CCC[C@H]1C(=O)N1CCC[C@H]1C(=O)N[C@@H](CO)C(N)=O)C(C)C (stereo partly drawn) [Compound 138] ({X27-βAla}-EGT[αMePhe(2-F)]TSDK([AEEA-AEEA-γGlu-C20 diacid])SIYLDKQAA[Aib]EFVNWLLAGGPSSGAPPPS-NH2),9.00 to 10.00,100,> 6.00,> 10.00,100,> 6.00,–,–,–,–
CC[C@H](C)[C@H](NC(=O)[C@H](CC(C)C)NC(=O)[C@H](Cc1c[nH]c2ccccc12)NC(=O)[C@H](CCC(N)=O)NC(=O)[C@@H](NC(=O)[C@H](Cc1ccccc1)NC(=O)[C@H](C)NC(=O)[C@H](CCCCNC(=O)COCCOCCNC(=O)COCCOCCNC(=O)CC[C@H](NC(=O)CCCCCCCCCCCCCCCCCCC(=O)O)C(=O)O)NC(=O)[C@H](CCC(N)=O)NC(=O)[C@H](C)NC(=O)[C@@H](NC(=O)[C@H](CCCCN)NC(=O)[C@H](CC(=O)O)NC(=O)[C@H](CC(C)C)NC(=O)C(C)(C)NC(=O)[C@@H](NC(=O)[C@H](CO)NC(=O)[C@H](Cc1ccc(O)cc1)NC(=O)[C@H](CC(=O)O)NC(=O)[C@H](CO)NC(=O)[C@@H](NC(=O)[C@H](Cc1ccccc1)NC(=O)[C@@H](NC(=O)CNC(=O)[C@H](CCC(=O)O)NC(=O)CCNC(=O)C(C)(C)c1cc(F)cc(C(=O)O)c1)[C@@H](C)O)[C@@H](C)O)[C@@H](C)CC)[C@@H](C)CC)C(C)C)C(=O)N[C@@H](C)C(=O)NCC(=O)NCC(=O)N1CCC[C@H]1C(=O)N[C@@H](CO)C(=O)N[C@@H](CO)C(=O)NCC(=O)N[C@@H](C)C(=O)N1CCC[C@H]1C(=O)N1CCC[C@H]1C(=O)N1CCC[C@H]1C(=O)N[C@@H](CO)C(N)=O [Compound 139] ({X9-βAla}-EGTFTSDYSI[Aib]LDKIAQK([AEEA-AEEA-γGlu-C20 diacid])AFVQWLIAGGPSSGAPPPS-NH2),7.00 to 8.00,109,< 6.00,8.00 to 9.00,102,< 6.00,–,–,–,–
CC[C@H](C)[C@H](NC(=O)[C@H](CC(C)C)NC(=O)[C@H](Cc1ccc(O)cc1)NC(=O)[C@@H](CCC(=O)O)NC(=O)[C@@H](NC(=O)[C@H](Cc1ccccc1)NC(=O)[C@H](CCC(=O)O)NC(=O)C(C)(C)NC(=O)[C@H](CCC(N)=O)NC(=O)[C@H](C)NC(=O)[C@H](CCCCNC(=O)COCCOCCNC(=O)COCCOCCNC(=O)CC[C@H](NC(=O)CCCCCCCCCCCCCCCCCCC(=O)O)C(=O)O)NC(=O)[C@H](CCCN)NC(=O)[C@H](CC(=O)O)NC(=O)[C@H](CC(C)C)NC(=O)[C@](C)(CC(C)C)NC(=O)[C@@H](NC(=O)[C@H](CO)NC(=O)[C@H](Cc1ccc(O)cc1)NC(=O)[C@H](CC(=O)O)NC(=O)[C@H](CO)NC(=O)[C@@H](NC(=O)[C@](C)(Cc1ccccc1F)NC(=O)[C@@H](NC(=O)CNC(=O)[C@H](CCC(=O)O)NC(=O)CCNC(=O)C(C)(C)c1cc(F)cc(C#N)c1)[C@@H](C)O)[C@@H](C)O)[C@@H](C)CC)[C@@H](C)CC)C(=O)N[C@@H](CCC(=O)O)C(=O)NCC(=O)NCC(=O)N1CCC[C@H]1C(=O)N[C@@H](CO)C(=O)N[C@@H](CO)C(=O)NCC(=O)N[C@@H](C)C(=O)N1CCC[C@H]1C(=O)N1CCC[C@H]1C(=O)N1CCC[C@H]1C(=O)N[C@@H](CO)C(N)=O [Compound 140] ({Isobutyryl(2-(3-CN-5-F-Ph))-βAla}-EGT[αMePhe(2-F)]TSDYSI[αMeL]LD[Orn]K([AEEA-AEEA-γGlu-C20 diacid])AQ[Aib]EFI[dE]YLIEGGPSSGAPPPS-NH2),> 10.00,108,< 6.00,> 10.00,104,> 6.00,–,–,–,–
CC[C@H](C)[C@H](NC(=O)[C@H](CO)NC(=O)[C@H](Cc1ccc(O)cc1)NC(=O)[C@H](CC(=O)O)NC(=O)[C@H](CO)NC(=O)[C@@H](NC(=O)[C@](C)(Cc1ccccc1F)NC(=O)[C@@H](NC(=O)CNC(=O)[C@H](CCC(=O)O)NC(=O)CCNC(=O)C1(c2ccc(Cl)cc2)CCCC1)[C@@H](C)O)[C@@H](C)O)C(=O)N[C@@H](Cc1ccc(O)cc1)C(=O)N[C@@H](CC(C)C)C(=O)N[C@@H](CC(=O)O)C(=O)N[C@@H](CCCCN)C(=O)N[C@@H](CCC(N)=O)C(=O)N[C@@H](C)C(=O)N[C@@H](C)C(=O)NC(C)(C)C(=O)N[C@@H](CCC(=O)O)C(=O)N[C@@H](Cc1ccccc1)C(=O)N[C@H](C(=O)N[C@@H](CC(N)=O)C(=O)N[C@@H](Cc1c[nH]c2ccccc12)C(=O)N[C@@H](CC(C)C)C(=O)N[C@@H](CC(C)C)C(=O)N[C@@H](C)C(=O)NCC(=O)NCC(=O)N1CCC[C@H]1C(=O)N[C@@H](CO)C(=O)N[C@@H](CO)C(=O)NCC(=O)N[C@@H](C)C(=O)N1CCC[C@H]1C(=O)N1CCC[C@H]1C(=O)N1CCC[C@H]1C(=O)N[C@@H](CO)C(=O)N[C@@H](CCCCNC(=O)COCCOCCNC(=O)COCCOCCNC(=O)CC[C@H](NC(=O)CCCCCCCCCCCCCCCCCCC(=O)O)C(=O)O)C(N)=O)C(C)C [Compound 141],9.00 to 10.00,108,< 6.00,9.00 to 10.00,97,> 6.00,–,–,–,–
CC[C@H](C)[C@H](NC(=O)[C@H](CO)NC(=O)[C@H](Cc1ccc(O)cc1)NC(=O)[C@H](CC(=O)O)NC(=O)[C@H](CO)NC(=O)[C@@H](NC(=O)[C@](C)(Cc1ccccc1F)NC(=O)[C@@H](NC(=O)CNC(=O)[C@H](CCC(=O)O)NC(=O)CCNC(=O)C1(c2ccccc2)CNC(=O)C1)[C@@H](C)O)[C@@H](C)O)C(=O)N[C@@H](Cc1ccc(O)cc1)C(=O)N[C@@H](CC(C)C)C(=O)N[C@@H](CC(=O)O)C(=O)N[C@@H](CCCCN)C(=O)N[C@@H](CCC(N)=O)C(=O)N[C@@H](C)C(=O)N[C@@H](C)C(=O)NC(C)(C)C(=O)N[C@@H](CCC(=O)O)C(=O)N[C@@H](Cc1ccccc1)C(=O)N[C@H](C(=O)N[C@@H](CC(N)=O)C(=O)N[C@@H](Cc1c[nH]c2ccccc12)C(=O)N[C@@H](CC(C)C)C(=O)N[C@@H](CC(C)C)C(=O)N[C@@H](C)C(=O)NCC(=O)NCC(=O)N1CCC[C@H]1C(=O)N[C@@H](CO)C(=O)N[C@@H](CO)C(=O)NCC(=O)N[C@@H](C)C(=O)N1CCC[C@H]1C(=O)N1CCC[C@H]1C(=O)N1CCC[C@H]1C(=O)N[C@@H](CO)C(=O)N[C@@H](CCCCNC(=O)COCCOCCNC(=O)COCCOCCNC(=O)CC[C@H](NC(=O)CCCCCCCCCCCCCCCCCCC(=O)O)C(=O)O)C(N)=O)C(C)C (stereo partly drawn) [Compound 142],> 10.00,99,> 6.00,9.00 to 10.00,99,> 6.00,–,–,–,–
CC[C@H](C)[C@H](NC(=O)[C@H](CO)NC(=O)[C@H](CCCCNC(=O)COCCOCCNC(=O)COCCOCCNC(=O)CC[C@H](NC(=O)CCCCCCCCCCCCCCCCCCC(=O)O)C(=O)O)NC(=O)[C@H](CC(=O)O)NC(=O)[C@H](CO)NC(=O)[C@@H](NC(=O)[C@H](Cc1ccccc1)NC(=O)[C@@H](NC(=O)CNC(=O)[C@H](CCC(=O)O)NC(=O)CCNC(=O)C(C)(C)c1cccc(C#N)c1)[C@@H](C)O)[C@@H](C)O)C(=O)N[C@@H](Cc1ccc(O)cc1)C(=O)N[C@@H](CC(C)C)C(=O)N[C@@H](CC(=O)O)C(=O)N[C@@H](CCCCN)C(=O)N[C@@H](CCC(N)=O)C(=O)N[C@@H](C)C(=O)N[C@@H](C)C(=O)NC(C)(C)C(=O)N[C@@H](CCC(=O)O)C(=O)N[C@@H](Cc1ccccc1)C(=O)N[C@H](C(=O)N[C@@H](CC(N)=O)C(=O)N[C@@H](Cc1c[nH]c2ccccc12)C(=O)N[C@@H](CC(C)C)C(=O)N[C@@H](CC(C)C)C(=O)N[C@@H](C)C(=O)NCC(=O)NCC(=O)N1CCC[C@H]1C(=O)N[C@@H](CO)C(=O)N[C@@H](CO)C(=O)NCC(=O)N[C@@H](C)C(=O)N1CCC[C@H]1C(=O)N1CCC[C@H]1C(=O)N1CCC[C@H]1C(=O)N[C@@H](CO)C(N)=O)C(C)C [Compound 143],–,100,–,–,101,–,7.00 to 8.00,> 6.00,> 10.00,< 6.00
